Source: patent US20050014676A1, “Methods for delaying or inducing labor” (Boston Biomedical Research Institute, priority 2003, published 2005)
“Also recorded” adds a separate entry of the source.

Legend:
myometrial strips = experiment: In vitro myometrial contractility (isometric force, AUC) of strips from treated rats
pregnant rats and pups = experiment: Fetal weight and toxicity to mothers and pups; assay type: in vivo, rat; conditions: for Fetal number/rat / Fetal weight: gestation day 20; for Fetal weight: (n) in brackets
From the text: Animals and treatment groups. All procedures were approved by our institutional animal care and use committee (IACUC). Sprague-Dawley nonpregnant and time-mated, primigravid pregnant rats (day 1=sperm positive, Taconic, Germantown, N.Y.) were used for the experiments. They were housed in a constant-temperature room with a 12-hr light and 12-hr dark cycle. Food and water were available ad libitum. The rats were divided into five groups: nonpregnant (NP), sham, RU486 treated (RU), U0126+RU486 treated (U0+RU) and spontaneous labor (SL). The sequential scheme of the experiment is illustrated in FIG. 1.
Induction of preterm labor: In the RU group, rats (n=6) were treated with RU486 subcutaneously (SC) at dose of 2 mg/kg (concentration of 3 mg/ml in sunflower seed oil) at 10 am on day 19 of pregnancy. Then the rats were closely observed for signs of labor on day 20 of pregnancy.
U0126 treatment: In the U0+RU group, 18-day pregnant rats (n=6) were treated with U0126 at dose of 100 mg/kg, SC, q8h (7 am, 3 pm and 11 pm). U0126 was dissolved at a concentration of 200 mg/ml in DMSO. On day 19 of pregnancy, the rats were administrated RU486 at 10 am for preterm labor induction. The U0126 treatment continued till the onset of labor.
Tissue preparation and force recording.

[1] = tested on: Sprague-Dawley pregnant rats; experiment: RU486-induced preterm labor in rats, onset of labor; conditions: for average delivery time after RU486 administration: RU486 2 mg/kg SC at 10 am day 19 of pregnancy, U0126 100 mg/kg SC q8h from day 18 until labor, mean±SEM
[2] = tested on: 20-kDa myosin light chain (LC20); experiment: Measurement of myosin light chain 20 phosphorylation (LC20-P) in permeabilized myometrial strips; parameters: species or system rat; conditions: 51 mM KCl stimulated for 4 min myometrial strips
Method: Measurements of myosin light chain 20 phosphorylation (LC20-P). Tissue preparation was as described above. After equilibration and stretching, the myometrial strips were permeabilized with 20 μg/ml alpha-toxin (List Biological Lab, Campbell, Calif.) at 34° C. for 30 min. The intracellular Ca2+ concentration was clamped at pCa7.0 for 12 min to prevent an artifactual triggering of contractions in response to the freezing solution. The measurement of LC20-P was performed by glycerol urea gels and western blots as previously published (Je et al., J. Physiol. 537, 567-577 (2001)). Moles phosphate per mole myosin light chain was calculated by dividing the density of the phosphorylated band by the sum of densities of phosphorylated plus the unphosphorylated bands.

ERK2 = experiment: Western blot of myometrial ERK2 phosphorylation (p-ERK2/ERK2); parameters: species or system rat; conditions: myometrium at onset of labor
Method: (§1) Western blot analysis. The muscle strips were quick-frozen in a dry ice acetone/DTT/TCA slurry at the end of force recording experiment. Samples were homogenized in a buffer containing 20 mM MOPS, 4% SDS, 1% Triton, 10% glycerol, 10 mM DTT, 20 mM β-glycerophosphate, 5.5 μM leupeptin, 5.5 μM pepstatin A, 20 KIU aprotinin, 2 mM Na3VO4, 1 mM NaF, 20 μM 4-(2-aminorthyl) benzenesulphonyl fluoride (AEBSF) and 100 μM ZnCl2. Protein-matched samples were SDS-PAGE electrophoresed, transferred to Immobilon-P membrane (Millipore, Bedford, Mass.), and subjected to immunostaining using the appropriate antibody. Blots were visualized with a SuperSignal West Pico Peroxide Solution (Pierce, Rockford, Ill.). The images were detected with a chemiluminescence screen and quantified with a BioRad Molecular Imager and Multi-Analyst software.

[3] = tested on: high molecular weight caldesmon (h-CaD); experiment: Western blot of myometrial h-CaD phosphorylation (Ser789); parameters: species or system rat; conditions: myometrium at onset of labor
Method: as §1

Structure (SMILES) | area under force curve (AUC) normalized to tissue dry weight (myometrial strips; strips from treated rats at labor, force integrated over 15 min) [g·s/mg] | Fetal number/rat (pregnant rats and pups) | Fetal weight (pregnant rats and pups) | average delivery time after RU486 administration ([1]; n=6) [h] | average gestational length ([1]; RU486-induced preterm labor, Mean±SD, n=6) [days] | LC20-P level, positive control [2] | myometrial AUC once labor commenced, vs RU486 or spontaneous labor (myometrial strips; U0+RU group) | ERK2 phosphorylation (p-ERK2/ERK2), words (ERK2) | signs of toxicity to mother or offspring (pregnant rats and pups; U0126 at doses sufficient to delay preterm labor) | effect on fetal weight (pregnant rats and pups; U0126 treatment) | daily weight gain or general behavior of pregnant rats, U0+RU vs RU group (pregnant rats and pups; data not shown) | delay of RU486-induced preterm labor ([1]; U0126 pretreatment, rats) | h-CaD phosphorylation normalized to CaD protein, words [3]
CC#C[C@]1(O)CC[C@H]2[C@@H]3CCC4=CC(=O)CCC4=C3[C@@H](c3ccc(N(C)C)cc3)C[C@@]21C [RU486, 11 β-[4-Dimethylamino] phenyl-17β-hydroxy-17-[1-propynyl] estra-4,9-dien-3-one] | 381.49 ± 44.92 | 13.4 | 2.46 ± 0.068 (16) grams | 22.25 ± 0.24 | 20.35 ± 0.02 |  |  |  |  |  |  |  | 
[Cl-].[K+] [KCI] |  |  |  |  |  | 39.68±3.33 |  |  |  |  |  |  | 
N#CC(=C(N)Sc1ccccc1N)C(C#N)=C(N)Sc1ccccc1N [U0126, 1,4-diamino-2,3-dicyano-1,4-bis (2-aminophenylthio) butadiene] |  | 12.3 | 2.46 ± 0.036 (31) grams | 25.18 ± 0.64 |  |  | indistinguishable | indistinguishable | no apparent signs of toxicity; also recorded: no obvious signs of toxicity | did not affect fetal weight | no difference | delays RU486-induced preterm labor in a statistically significant manner | indistinguishable
